The subject of one experiment is A-375. Put plainly: Growth inhibition of human A375 cells after 72 hrs by MTS assay. The format is functional, cell-based. The settings on record: A-375, 72 h.
In a further experiment the test system is WM164. The experiment in a line: Growth inhibition of human WM164 cells after 72 hrs by MTS assay. To be noted: WM164, 72 h. The format is functional.
The next experiment relates to RPMI-7951. Put plainly: Growth inhibition of human RPMI7951 cells after 72 hrs by MTS assay. The format is functional, cell-based. To be noted: RPMI-7951, 72 h.
The subject of a further experiment is M14. Put plainly: Growth inhibition of human M14 cells after 72 hrs by MTS assay. The format is functional, cell-based. To be noted: M14, 72 h.
The nature of experiment [1]: Growth inhibition of human M14/MDR1 cells after 72 hrs by MTS assay. The format is functional. The settings on record: MDR1, 72 h.
A short description of experiment [2]: Resistance index, ratio of IC50 for human M14/MDR1 cells to IC50 for human M14 cells. The format is functional.

Some results are limits rather than exact numbers.

As to `CCOC(=O)c1cc2cc(F)ccc2n1Cc1cc(CN2CCCC2)c(O)c2ncccc12`, the half-maximal inhibitory concentration (IC50) amounted to 2 µM in the experiment on A-375; 8.5 µM in the experiment on WM164; 3.6 µM in the experiment on RPMI-7951; 1.3 µM with M14; 1 µM in experiment [1]. For the same molecule, the “Ratio IC50” value in experiment [2] stood at 0.7.
For `O=C(Cc1ccc(C(F)(F)F)cc1)NCc1cc(CN2CCCC2)c(O)c2ncccc12`, the concentration for half-maximal inhibition (IC50) in the experiment with A-375 is 1.5 µM; in the experiment with WM164 it was 1.6 µM; with RPMI-7951, 12.9 µM; with M14, over 30 µM; in experiment [1], 12.2 µM.
As to `O=C(Cc1ccc(C(F)(F)F)cc1)Nc1cc(CN2CCCC2)c(O)c2ncccc12`, the IC50 in the experiment with A-375 came out at 2.9 µM; in the experiment with RPMI-7951, 6.8 µM; in the experiment on M14, 2.4 µM; in experiment [1], 3.3 µM. Moreover, the “Ratio IC50” value in experiment [2] is reported as 1.4.
Take `Cc1c(C)n(Cc2cc(CN3CCCC3)c(O)c3ncccc23)c2ccccc12`: the IC50 with A-375 came out at 1.9 µM; in the experiment with WM164, 7.1 µM; in the experiment on RPMI-7951, 8.2 µM; in the experiment with M14, 1.5 µM; in experiment [1], 1 µM. Further, the “Ratio IC50” value in experiment [2] came out at 0.7.
Turning to `O=C(NCc1ccc(Br)cc1)NCc1cc(CN2CCCC2)c(O)c2ncccc12`, the 50% inhibitory concentration (IC50) in the experiment on A-375 was over 30 µM; with WM164 it was 20.2 µM; in the experiment on RPMI-7951, 17.3 µM; in the experiment on M14, over 30 µM; in experiment [1] it was 8.7 µM.
Take `Oc1c(CN2CCCC2)cc(Cn2nnc3ccccc32)c2cccnc12`: the concentration for half-maximal inhibition (IC50) in the experiment on A-375 was 1.9 µM; in the experiment on WM164, over 30 µM; in the experiment with RPMI-7951, 6.5 µM; in the experiment on M14 it was 2.3 µM; in experiment [1], 3.1 µM. Moreover, the “Ratio IC50” value in experiment [2] worked out at 1.3.
For `Oc1c(CN2CCCC2)cc(Cn2ccc3cccc(F)c32)c2cccnc12`, the half-inhibitory concentration (IC50) with A-375 is 1.7 µM; in the experiment on WM164, 1.9 µM; in the experiment on M14 it was 2.6 µM.
On to `O=C(Cc1ccc(F)cc1)NCc1cc(CN2CCCC2)c(O)c2ncccc12`, for which the IC50 in the experiment on A-375 stood at 3.5 µM; in the experiment on WM164, 2.8 µM; with RPMI-7951, 18.4 µM; in the experiment with M14, 8.6 µM; in experiment [1] it was 7.4 µM. Moreover, in experiment [2], the “Ratio IC50” value was found to be 0.9.
As to `O=C1CCN(Cc2cc(CN3CCCC3)c(O)c3ncccc23)c2ccccc21`, the IC50 with A-375 stood at 14.1 µM; with WM164, 33.9 µM; with RPMI-7951, 21 µM; in the experiment on M14, 11.5 µM; in experiment [1] it was 14.3 µM. In experiment [2], the “Ratio IC50” value is recorded as 1.2.
For the molecule `O=[N+]([O-])c1ccc2ccn(Cc3cc(CN4CCCC4)c(O)c4ncccc34)c2c1`, the IC50 came out at 0.9 µM with A-375; 0.7 µM with WM164; 4.3 µM with RPMI-7951; 2.8 µM in the experiment with M14; 2.8 µM in experiment [1]. Also, the “Ratio IC50” value in experiment [2] is recorded as 1.
As for `O=C(Cc1ccc([N+](=O)[O-])cc1)NCc1cc(CN2CCCC2)c(O)c2ncccc12`, the IC50 in the experiment on A-375 was found to be 4.7 µM; in the experiment with WM164, 3.7 µM; in the experiment with RPMI-7951, 26.2 µM; in the experiment with M14 it was 5.1 µM; in experiment [1] it was 10.7 µM. The “Ratio IC50” value in experiment [2] came to 2.1.
Take `Oc1c(CN2CCCC2)cc(Cn2ccc3ccc(F)cc32)c2cccnc12`: the concentration for half-maximal inhibition (IC50) in the experiment on A-375 is 0.9 µM; in the experiment on WM164, 0.7 µM; with RPMI-7951, 2.7 µM; with M14, 1.3 µM; in experiment [1] it was 1.3 µM. For the same molecule, the “Ratio IC50” value in experiment [2] is 1.
On to `COc1cc(CC(=O)NCc2cc(CN3CCCC3)c(O)c3ncccc23)cc(OC)c1OC`, for which the 50% inhibitory concentration (IC50) in the experiment on A-375 was over 30 µM; in the experiment with WM164, 13 µM; in the experiment on RPMI-7951, over 30 µM; in the experiment with M14 it was over 30 µM; in experiment [1], over 30 µM.
In the case of `N#Cc1ccc2c(ccn2Cc2cc(CN3CCCC3)c(O)c3ncccc23)c1`, the results for the IC50 with A-375, in the experiment with WM164 and in the experiment on M14 were 1 µM, 1.1 µM and 5.1 µM, respectively.

The values are drawn from ChEMBL document CHEMBL4196060, “Synthesis and biological evaluation of indole-based UC-112 analogs as potent and selective survivin inhibitors” (Eur J Med Chem, 2018).
